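1) Cells in 96-well plates. 2) Compound, 48 h, 5 concentrations. 3) Linear interpolation between surrounding doses. 4) Unreached endpoint = highest concentration. Here, GI50 denotes the concentration required for 50% inhibition of growth. The concentration for full growth arrest is given as TGI.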
What was measured:
Test in all cases: NCI tumour cell line growth inhibition, 48 h
NCI-H23 lung = system: NCI-H23 lung
SK-MEL-2 melanoma = system: SK-MEL-2 melanoma
T-47D breast = system: T-47D breast
SW-620 colon = system: SW-620 colon
MALME-3M melanoma = system: MALME-3M melanoma
UACC-62 melanoma = system: UACC-62 melanoma
OVCAR-4 ovarian = system: OVCAR-4 ovarian
KM12 colon = system: KM12 colon
U251 CNS = system: U251 CNS
HCC-2998 colon = system: HCC-2998 colon
NCI/ADR-RES ovarian = system: NCI/ADR-RES ovarian
SF-539 CNS = system: SF-539 CNS
BT-549 breast = system: BT-549 breast
OVCAR-5 ovarian = system: OVCAR-5 ovarian
MOLT-4 leukemia = system: MOLT-4 leukemia
A549 NSCLC = system: A549 NSCLC
HL-60(TB) leukemia = system: HL-60(TB) leukemia
NCI-H226 lung = system: NCI-H226 lung
SNB-19 CNS = system: SNB-19 CNS
DU-145 prostate = system: DU-145 prostate
HS 578T breast = system: HS 578T breast
CCRF-CEM leukemia = system: CCRF-CEM leukemia
OVCAR-8 ovarian = system: OVCAR-8 ovarian
HOP-92 NSCLC = system: HOP-92 NSCLC
TK-10 renal = system: TK-10 renal
786-0 renal = system: 786-0 renal
LOX IMVI melanoma = system: LOX IMVI melanoma
OVCAR-3 ovarian = system: OVCAR-3 ovarian
HT29 colon = system: HT29 colon
CAKI-1 renal = system: CAKI-1 renal
SK-OV-3 ovarian = system: SK-OV-3 ovarian
SK-MEL-28 melanoma = system: SK-MEL-28 melanoma
IGROV1 ovarian = system: IGROV1 ovarian
MDA-MB-468 breast = system: MDA-MB-468 breast
HCT-116 colon = system: HCT-116 colon
M14 melanoma = system: M14 melanoma
HCT-15 colon = system: HCT-15 colon
HOP-62 NSCLC = system: HOP-62 NSCLC
RPMI-8226 leukemia = system: RPMI-8226 leukemia
PC-3 prostate = system: PC-3 prostate
RXF 393 renal = system: RXF 393 renal
MCF7 breast = system: MCF7 breast
EKVX NSCLC = system: EKVX NSCLC
MDA-MB-231 breast = system: MDA-MB-231 breast
A498 renal = system: A498 renal
ACHN renal = system: ACHN renal
NCI-H460 lung = system: NCI-H460 lung
SN12C renal = system: SN12C renal
COLO 205 colon = system: COLO 205 colon
SNB-75 CNS = system: SNB-75 CNS
UO-31 renal = system: UO-31 renal
NCI-H522 lung = system: NCI-H522 lung
SK-MEL-5 melanoma = system: SK-MEL-5 melanoma
K-562 leukemia = system: K-562 leukemia
SF-268 CNS = system: SF-268 CNS
SF-295 CNS = system: SF-295 CNS
UACC-257 melanoma = system: UACC-257 melanoma
MDA-MB-435 = system: MDA-MB-435

Brc1ccc(N/N=C/c2c[nH]c3ccc(Br)cc23)nc1
GI50 (NCI-H23 lung): 2.14 µM | TGI (NCI-H23 lung): 8.21 µM | GI50 (SK-MEL-2 melanoma): 2.92 µM | TGI (SK-MEL-2 melanoma): 11.9 µM | GI50 (T-47D breast): 1.97 µM | TGI (T-47D breast): 12 µM | GI50 (SW-620 colon): 2.85 µM | TGI (SW-620 colon): 11.7 µM | GI50 (MALME-3M melanoma): 3.26 µM | TGI (MALME-3M melanoma): 15.3 µM | GI50 (UACC-62 melanoma): 0.862 µM | TGI (UACC-62 melanoma): 10.9 µM | GI50 (OVCAR-4 ovarian): 4.07 µM | TGI (OVCAR-4 ovarian): 17.8 µM | GI50 (KM12 colon): 1.67 µM | TGI (KM12 colon): 5.88 µM | GI50 (U251 CNS): 2.54 µM | TGI (U251 CNS): 10.5 µM | GI50 (HCC-2998 colon): 1.74 µM | TGI (HCC-2998 colon): 3.55 µM | GI50 (NCI/ADR-RES ovarian): 2.79 µM | TGI (NCI/ADR-RES ovarian): 12.4 µM | GI50 (SF-539 CNS): 0.795 µM | TGI (SF-539 CNS): 8.06 µM | GI50 (BT-549 breast): 0.259 µM | TGI (BT-549 breast): 5.39 µM | GI50 (OVCAR-5 ovarian): 2.32 µM | TGI (OVCAR-5 ovarian): 9.51 µM | GI50 (MOLT-4 leukemia): 0.644 µM | TGI (MOLT-4 leukemia): 18.5 µM | GI50 (A549 NSCLC): 3.26 µM | TGI (A549 NSCLC): 12.7 µM | GI50 (HL-60(TB) leukemia): 1.7 µM | TGI (HL-60(TB) leukemia): 18.7 µM | GI50 (NCI-H226 lung): 0.674 µM | TGI (NCI-H226 lung): 10.3 µM | GI50 (SNB-19 CNS): 3.09 µM | TGI (SNB-19 CNS): 12.4 µM | GI50 (DU-145 prostate): 4.55 µM | TGI (DU-145 prostate): 16 µM | GI50 (HS 578T breast): 2.13 µM | TGI (HS 578T breast): 8.29 µM | GI50 (CCRF-CEM leukemia): 1.27 µM | TGI (CCRF-CEM leukemia): > 100 µM | GI50 (OVCAR-8 ovarian): 2.96 µM | TGI (OVCAR-8 ovarian): 17 µM | GI50 (HOP-92 NSCLC): 1.51 µM | TGI (HOP-92 NSCLC): 4.27 µM | GI50 (TK-10 renal): 5.85 µM | TGI (TK-10 renal): 15.1 µM | GI50 (786-0 renal): 2.5 µM | TGI (786-0 renal): 8.24 µM | GI50 (LOX IMVI melanoma): 1.11 µM | TGI (LOX IMVI melanoma): 2.49 µM | GI50 (OVCAR-3 ovarian): 2.69 µM | TGI (OVCAR-3 ovarian): 9.13 µM | GI50 (HT29 colon): 2.39 µM | TGI (HT29 colon): 5.32 µM | GI50 (CAKI-1 renal): 1.6 µM | TGI (CAKI-1 renal): 9.87 µM | GI50 (SK-OV-3 ovarian): 2.71 µM | TGI (SK-OV-3 ovarian): 13.7 µM | GI50 (SK-MEL-28 melanoma): 3.58 µM | TGI (SK-MEL-28 melanoma): 13.2 µM | GI50 (IGROV1 ovarian): 0.251 µM | TGI (IGROV1 ovarian): 1.89 µM | GI50 (MDA-MB-468 breast): 1.61 µM | TGI (MDA-MB-468 breast): 4.2 µM | GI50 (HCT-116 colon): 2.68 µM | TGI (HCT-116 colon): 10.6 µM | GI50 (M14 melanoma): 2.03 µM | TGI (M14 melanoma): 5.31 µM | GI50 (HCT-15 colon): 1.8 µM | TGI (HCT-15 colon): 4.25 µM | GI50 (HOP-62 NSCLC): 3.14 µM | TGI (HOP-62 NSCLC): 13 µM | GI50 (RPMI-8226 leukemia): 1.47 µM | TGI (RPMI-8226 leukemia): 8.12 µM | GI50 (PC-3 prostate): 0.851 µM | TGI (PC-3 prostate): 10.1 µM | GI50 (RXF 393 renal): 1.85 µM | TGI (RXF 393 renal): 5.64 µM | GI50 (MCF7 breast): 1.59 µM | TGI (MCF7 breast): 7.85 µM | GI50 (EKVX NSCLC): 1.74 µM | TGI (EKVX NSCLC): 10.9 µM | GI50 (MDA-MB-231 breast): 1.44 µM | TGI (MDA-MB-231 breast): 3.64 µM | GI50 (A498 renal): 4.03 µM | TGI (A498 renal): 13.3 µM | GI50 (ACHN renal): 2.66 µM | TGI (ACHN renal): 10.5 µM | GI50 (NCI-H460 lung): 2.7 µM | TGI (NCI-H460 lung): 8.64 µM | GI50 (SN12C renal): 1.05 µM | TGI (SN12C renal): 9.73 µM | GI50 (COLO 205 colon): 2.07 µM | TGI (COLO 205 colon): 5 µM | GI50 (SNB-75 CNS): 0.568 µM | TGI (SNB-75 CNS): 6.01 µM | GI50 (UO-31 renal): 0.532 µM | TGI (UO-31 renal): 7.55 µM | GI50 (NCI-H522 lung): 1.6 µM | TGI (NCI-H522 lung): 5.54 µM | GI50 (SK-MEL-5 melanoma): 2.56 µM | TGI (SK-MEL-5 melanoma): 8.54 µM | GI50 (K-562 leukemia): 2.73 µM | TGI (K-562 leukemia): > 100 µM | GI50 (SF-268 CNS): 1.84 µM | TGI (SF-268 CNS): 13.9 µM | GI50 (SF-295 CNS): 1.74 µM | TGI (SF-295 CNS): 3.56 µM | GI50 (UACC-257 melanoma): 3.47 µM | TGI (UACC-257 melanoma): 15.3 µM | GI50 (MDA-MB-435): 3.45 µM | TGI (MDA-MB-435): 14.1 µM

Reference: PubChem BioAssay (NCI)
